From patent publication US20240150293A1, “SPIROCYCLOHEXANE DERIVATIVES, PHARMACEUTICAL COMPOSITIONS CONTAINING THEM AND THEIR USES AS ANTI-APOPTOTIC INHIBITORS” (LES LABORATOIRES SERVIER, priority 2021, published 2024)
pKi: −log10 of the molar value.

Biological target: Mcl-1 protein (UniProtKB Q07820) (Homo sapiens (Human), UniProt Q07820)
Assay: Inhibition of Mcl-1 by the fluorescence polarisation assay (Example A, Method A)
Assay type: binding
Conditions: fluorescence polarization assay
How it was run: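 Protein (5 nM) and fluorescein-tagged peptide tracer (1 nM) incubated with 11-point compound series for 2 h at room temperature in HEPES/NaCl/Tween 20 buffer, pH 7.4, 5% DMSO. Displacement read as decrease in polarisation; IC50 fitted by 4-parameter logistic, converted to Ki (cKi or eKi).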

Mcl-1 protein, sequence (Q07820 whole entry): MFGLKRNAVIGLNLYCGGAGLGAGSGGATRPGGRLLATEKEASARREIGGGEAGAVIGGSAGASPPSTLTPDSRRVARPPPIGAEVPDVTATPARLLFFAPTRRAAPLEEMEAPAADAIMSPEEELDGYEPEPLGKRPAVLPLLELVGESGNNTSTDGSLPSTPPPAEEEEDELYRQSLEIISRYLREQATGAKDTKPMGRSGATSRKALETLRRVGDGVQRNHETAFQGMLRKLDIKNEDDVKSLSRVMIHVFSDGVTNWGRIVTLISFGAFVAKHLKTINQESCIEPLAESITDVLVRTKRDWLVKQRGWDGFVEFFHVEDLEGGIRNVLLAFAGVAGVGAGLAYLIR

SMILES	pKi
O=C(O)[C@]1(Nc2cccc(Cl)c2)CC[C@]2(CC1)C(CCCOc1ccccc1)=Cc1ccccc12 [Example 422, (1r,4r)-4-(3-chloroanilino)-2′-(3-phenoxypropyl)spiro[cyclohexane-1,1′-indene]-4-carboxylic acid]	7.02
COc1ccc(Cl)c(C2Cc3ccccc3[C@]23CC[C@@](Nc2cccc(Cl)c2)(C(=O)O)CC3)c1 (single isomer, unassigned) [Example 258, (1r,4r)-4-(3-chloroanilino)-2′-(2-chloro-5-methoxyphenyl)-2′,3′-dihydrospiro[cyclohexane-1,1′-indene]-4-carboxylic acid]	5.63
COc1cccc(C2Cc3ccccc3[C@]23CC[C@@](Nc2cccc(Cl)c2)(C(=O)O)CC3)c1 (single isomer, unassigned) [Example 272, (1r,4r)-4-(3-chloroanilino)-2′-(3-methoxyphenyl)-2′,3′-dihydrospiro[cyclohexane-1,1′-indene]-4-carboxylic acid]	6.90
COCCOc1cccc(N[C@]2(C(=O)O)CC[C@@]3(CC2)C(Br)=Cc2ccccc23)n1 [Example 80, (1s,4s)-2′-bromo-4-{[6-(2-methoxyethoxy)pyridin-2-yl]amino}spiro[cyclohexane-1,1′-indene]-4-carboxylic acid]	4.93
O=C(O)[C@]1(Nc2cccc(Br)c2)CC[C@]2(CC1)C(Br)=Cc1ccccc12 [Example 78, (1s,4s)-2′-bromo-4-(3-bromoanilino)spiro[cyclohexane-1,1′-indene]-4-carboxylic acid]	7.06
Cc1cncn(CCCC2=Cc3ccccc3[C@]23CC[C@@](Nc2cccc(Cl)c2)(C(=O)O)CC3)c1=O [Example 182, (1r,4r)-4-(3-chloroanilino)-2′-[3-(5-methyl-6-oxopyrimidin-1 (6H)-yl)propyl]spiro[cyclohexane-1,1′-indene]-4-carboxylic acid]	5.79
COc1ccc2c(c1)[C@]1(CC[C@@](Nc3cccc(Cl)c3)(C(=O)O)CC1)C(Br)=C2 [Example 129, (1s,4s)-2′-bromo-4-(3-chloroanilino)-6′-methoxyspiro[cyclohexane-1,1′-indene]-4-carboxylic acid]	7.09
O=C(O)[C@]1(Nc2cccc(Cl)c2)CC[C@]2(CC1)C(CCCc1ccc(Cl)cc1)=Cc1ccccc12 [Example 157, (1r,4r)-4-(3-chloroanilino)-2′-[3-(4-chlorophenyl)propyl]spiro[cyclohexane-1,1′-indene]-4-carboxylic acid]	6.07
COc1ccc(C)c(C2Cc3ccccc3[C@]23CC[C@@](Nc2cccc(Cl)c2)(C(=O)O)CC3)c1 (single isomer, unassigned) [Example 271, (1r,4r)-4-(3-chloroanilino)-2′-(5-methoxy-2-methylphenyl)-2′,3′-dihydrospiro[cyclohexane-1,1′-indene]-4-carboxylic acid]	4.90
Cn1cc(C2Cc3ccccc3[C@]23CC[C@@](Nc2cccc(Br)c2)(C(=O)O)CC3)cn1 (stereo partly drawn) [Example 212, (1r,4r)-4-(3-bromoanilino)-2′-(1-methyl-1H-pyrazol-4-yl)-2′,3′-dihydrospiro[cyclohexane-1,1′-indene]-4-carboxylic acid]	5.02
O=C(O)[C@]1(Nc2cccc(Cl)c2)CC[C@@]2(CC1)c1ccccc1CC2c1ccc(OCc2ccccc2)cc1 (single isomer, unassigned) [Example 352, (1r,4r)-2′-[4-(benzyloxy)phenyl]-4-(3-chloroanilino)-2′,3′-dihydrospiro[cyclohexane-1,1′-indene]-4-carboxylic acid]	6.10
COc1cc(C)cc(C2=Cc3ccccc3[C@]23CC[C@@](Nc2cccc(Cl)c2)(C(=O)O)CC3)c1 [Example 310, (1s,4s)-4-(3-chloroanilino)-2′-(3-methoxy-5-methylphenyl)spiro[cyclohexane-1,1′-indene]-4-carboxylic acid]	6.14
